Source: ChEMBL document CHEMBL4476876, “Compounds for the modulation of myc activity” (2018)

Key:
[1] = biological target: Myc proto-oncogene protein (Homo sapiens, UniProt P01106); assay: Inhibition of human c-Myc assessed as reduction in c-Myc/Max/Ebox DNA complex formation using pre-formed complex of c-Myc and biotinylated DNA containing single Ebox-sequence followed by compound addition and further addition of his6-tagged c-Max and incubated for 2 hrs by AlphaScreen assay
NCI-H2171 = assay: Antiproliferative activity against human NCI-H2171 cells after 72 hrs by ATPlite assay; assay type: functional, cell-based; conditions: NCI-H2171, 72 h

Sequence of Myc proto-oncogene protein (P01106 whole entry): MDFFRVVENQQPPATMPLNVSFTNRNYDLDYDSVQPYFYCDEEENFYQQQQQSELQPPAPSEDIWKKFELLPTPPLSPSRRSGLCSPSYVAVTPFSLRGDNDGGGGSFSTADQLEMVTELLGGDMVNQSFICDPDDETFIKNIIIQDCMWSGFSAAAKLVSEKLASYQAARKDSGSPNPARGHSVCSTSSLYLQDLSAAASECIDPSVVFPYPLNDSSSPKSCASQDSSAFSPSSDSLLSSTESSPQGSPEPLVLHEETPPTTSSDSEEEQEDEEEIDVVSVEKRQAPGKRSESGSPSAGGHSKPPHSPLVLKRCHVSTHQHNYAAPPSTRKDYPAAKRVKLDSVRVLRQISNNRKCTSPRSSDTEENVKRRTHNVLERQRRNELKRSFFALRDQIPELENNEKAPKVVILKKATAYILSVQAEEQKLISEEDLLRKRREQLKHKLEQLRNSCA

IC50 [1]	IC50 (NCI-H2171)	SMILES
< 500 nM	–	O=C(CC[N+]12CCN(CC1)CC2)Nc1sc2c(c1-c1nc3cnccc3s1)CCNC2
–	< 500 nM	CC[C@H](C)NCCC(=O)Nc1sc2c(c1-c1nc3cnccc3s1)CN[C@H](C)C2
–	< 500 nM	CCN1[C@H](C)Cc2c(sc(NC(C)=O)c2-c2nc3c(C(F)F)nccc3s2)[C@H]1C
–	< 500 nM	CC[C@H](C)NCCC(=O)Nc1sc2c(c1-c1nc3cnccc3s1)C[C@H](C)NC2
